# Results from US8742141B2, “Inhibition and treatment of prostate cancer metastasis” (Northwestern University, priority 2008, dated 2014).
# Read-outs that look alike come from different tables or passages of the source.
# Columns and labels:
# [1] = tested on: MEK4; test: Phosphorylation of MEK4 in vivo (TGFβ stimulated); assay type: cell-based
# Protocol: Phosphorylation by MEK4 (FIG. 4A) and phosphorylation of MEK4 (FIG. 7) was assayed. The Upstate Biotechnology MEK4 assay system was used to measure inhibition of MEK4 activity. Phosphorylation of MEK4 in vivo was assayed using standard techniques.
# [2] = tested on: human PC3-M PCa cells; test: Orthotopic PC3-M implantation metastasis model in athymic mice
# [3] = tested on: ER promoter-luciferase reporter vector construct; test: ER promoter-luciferase reporter assay in MCF-7 cells; assay type: cell-based, human; conditions: 10 μM
# Protocol: The genes were: TFF1 (trefoil factor 1; also known as pS2), PGR (progesterone receptor), and CPSD (cathepsin D). Gene expression was measured by isolating RNA, and performing real time quantitative reverse transcription/polymerase chain reaction (qRT/PCR), using exon spanning primers (purchased from Applied Biosystems). The expression of GAPDH was also measured, and used to normalize the expression of ER responsive genes. Data below are the mean±SD of a single experiment, performed in duplicate. […] Additionally, the ability of compound 46 to activate an ER promoter-luciferase reporter vector construct after transient transfection of the human ER positive breast cancer cell line, MCF-7, was evaluated (FIG. 31). […] “No associated control cells” were transfected with an identical vector construct that lacked the estrogen response element, i.e., noERE.
# [4] = cited from earlier work
# [5] = target: T1, MEK4 (Homo sapiens, UniProt P45985); test: Upstate Biotechnology MEK4 assay system, inhibition of MEK4 kinase activity; assay type: biochemical; conditions: in vitro
# T1 construct: purchased Upstate Biotechnology
# T1 sequence (P45985 1-399): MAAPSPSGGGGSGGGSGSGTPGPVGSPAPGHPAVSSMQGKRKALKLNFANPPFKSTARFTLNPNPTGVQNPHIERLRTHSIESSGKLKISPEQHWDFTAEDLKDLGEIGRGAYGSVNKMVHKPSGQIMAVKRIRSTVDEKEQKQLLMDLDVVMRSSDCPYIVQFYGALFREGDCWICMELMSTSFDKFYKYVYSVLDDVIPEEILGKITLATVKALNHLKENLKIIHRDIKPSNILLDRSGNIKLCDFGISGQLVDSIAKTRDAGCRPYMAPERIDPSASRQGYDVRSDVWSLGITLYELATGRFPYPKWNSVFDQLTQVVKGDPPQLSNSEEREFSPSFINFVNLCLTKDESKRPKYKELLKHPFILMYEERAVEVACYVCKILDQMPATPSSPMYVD
# [6] = tested on: prostate epithelial cells; test: Phase 2 trial, nuclear morphology of prostate epithelial cells; assay type: in vivo, human; conditions: genistein treated men vs controls
# Source text: Though morphologically “normal,” these cells are present within organs with PCa, have pre-cancer molecular changes, and represent an appropriate target cell type for therapy that inhibits a process associated with PCa progression, in this case, development of the metastatic phenotype. […] These findings are consistent with its effects in vitro and in mice.
# [7] = tested on: PCa cell lines (PC3, PC3-M, 1532CPTX, 1542CPTX, 1532NPTX, 1542NPTX); test: Cell invasion assay of PCa cell lines (Examples 2 and 3); assay type: cell-based, human
# Source text: MEK expression was examined in six human prostate cancer (PCa) cell lines: PC3 and PC3-M metastatic PCa cells, 1532CPTX and 1542 CPTX immortalized localized PCa cells, and 1532 NPTX and 1542 NPTX immortalized normal epithelial cells. The last four cell lines are primary cells, are HPV transformed, and thus represent early stages of prostate carcinogenesis. They provide representative members of the metastatic phenotype, as well as members of early state phenotypes. […] All six cell lines also secrete as well as respond to TGFβ, a regulator of cell motility that plays a role in PCa cell invasiveness.
# Assays were conducted using methods as described in Craft et al. (2008, Mol. Pharmocol., 73(1):235-242; herein incorporated by reference in its entirety).
# [8] = tested on: MMP-2; test: Phase 2 trial, MMP-2 transcript by qRT/PCR in LCM normal prostate epithelial cells; assay type: in vivo, human; conditions: 2 mg genistein/kg/day
# Protocol: Of 38 subjects completing the study, MMP-2 expression was analyzed in tissue from 12 genistein-treated subjects and 12 controls. […] MMP-2 expression was measured by removing normal prostate epithelial cells from intact fresh frozen prostate tissue by laser capture microdissection (LCM), isolating RNA, treating with DNase, assessing RNA quality by capillary electrophoresis, and measuring MMP-2 transcript levels by qRT/PCR (normalizing to GAPDH), using exon spanning primers.
# [9] = Phase 2 trial, serious adverse events; assay type: in vivo, human; conditions: grade >/= 2 clinical toxicity, NCI Common Toxicity Criteria v 2.0; 12 subjects
# [10] = 0, 100, 250 mg genistein/kg chow
# [11] = Western blot, primary tumor tissue
compound,measurement,setting,value
O=c1c(-c2ccc(O)cc2)coc2cc(O)cc(O)c12 [genistein],TGFβ increased MEK4 phosphorylation,[1],does not block such phosphorylation
same,metastasis,[2]; [10],decreased metastasis
same,tumor volume,[2]; [10],not tumor volume
same,level of total p38 MAP kinase protein,[2]; [11],increased the level of total p38 MAP kinase protein
same,p38 MAP kinase phosphorylation,[2]; [11],decreased its phosphorylation
same,weight of mice,[2]; between cohorts,no difference
same,luciferase activity,[3],induced luciferase activity
same,tolerability,"[4]; 2 to 8 mg genistein/kg, men with prostate cancer",well tolerated
same,peak concentration of free genistein,[4]; 2 to 8 mg genistein/kg,66 to 170 nM
same,peak concentration of total genistein,[4]; 2 to 8 mg genistein/kg,4.3 to 16.3 µM
same,clearance,[4]; dependence on body mass,not altered by body mass
same,blood genistein conjugated,[4]; in vivo,> 90%
same,halflife,[4]; in vivo,15 to 22 h
same,phosphorylation of JNK3 by MEK4,[5],inhibits phosphorylation of JNK3 by MEK4
same,blood concentration of total genistein,100 mg genistein/kg chow cohort,290 ± 72 nM
same,blood concentration of total genistein,250 mg genistein/kg chow cohort,1307 ± 507 nM
same,increase in nuclear length,[6],1.5±0.7%
same,increase in nuclear width,[6],2.7±0.7%
same,increase in nuclear area,[6]; only a trend,2.0±1.0%
same,cell invasion,[7]; early and late stage PCa cells,inhibits invasion of both early and late stage PCa cells
same,effect of genistein on invasiveness when MEK4 expression suppressed,[7]; in the presence of siMEK4,abrogated
same,"MMP-2 transcript level, % of controls (mean±SEM)",[8],24±4.1%
same,"serious adverse events, number",[9],0
